Results taken from patent US12318386B2, “Combination of XPO1 inhibitors and second agents for the treatment of prostate cancer” (Karyopharm Therapeutics Inc., priority 2018, dated 2025).

Key:
[1] = tested on: AR; test: AR mRNA expression by real-time RT-qPCR in 22Rv1 cells; assay type: cell-based; conditions: 200 nM, 48 hours, vs control before treatment
Method: (§1) Prostate cancer cell line 22Rv1 was treated with KPT-8602 and the effect of the treatment on the expression of AR and AR splice variant AR-v7 was determined. 22Rv1 cells were treated with 200 nM KPT-8602 for 48 hours and the mRNA expression levels of AR and AR-v7 before (control) and after treatment were measured by real-time RT-qPCR using High Capacity cDNA Reverse Transcription Kit and SYBR Green Master Mixture from Applied Biosystems (Waltham, MA).

[2] = tested on: AR-v7; test: AR-v7 mRNA expression by real-time RT-qPCR in 22Rv1 cells; assay type: cell-based; conditions: 200 nM, 48 hours, vs control before treatment
Method: as §1

[3] = tested on: AR; test: Western blot of AR protein levels; assay type: cell-based; conditions: 22Rv1 cells, 250 nM, 72 hours
Method: (§2) Total proteins were subjected to 10 or 14% SDS-PAGE, and electrophoretically transferred to nitrocellulose membrane. The membranes were incubated with specific primary antibodies, and subsequently incubated with secondary antibody conjugated with peroxidase (Bio-rad, Hercules, CA). The signal was detected using the chemiluminescent detection system (PIERCE).

[4] = tested on: ARv; test: Western blot of ARv protein levels; assay type: cell-based; conditions: 22Rv1 cells, 250 nM, 72 hours
Method: as §2

[5] = tested on: 22Rv1 prostate cancer xenograft; test: 22Rv1 prostate cancer xenograft model in CB.17 SCID mice; assay type: in vivo; conditions: 15 mg/kg, QDx5/week
Method: The effect of KPT-8602 (15 mg/kg, QDx5/week) in a 22Rv1 prostate cancer xenograft model in CB.17 SCID mice was evaluated. Mouse weights and tumor size were monitored three times a week. Each mouse was euthanized at the end of study (Day 35) or when tumor volume reached 1000 mm^3, whichever comes first.

[6] = tested on: xenograft samples derived from 22Rv1 cells; test: Immunohistochemistry of 22Rv1 xenograft samples; assay type: in vivo, mice
Source text: Increased nuclear staining of tumor suppressor proteins Rb, p21, p53, APC and SMAD4 were also observed in samples treated with KPT-8602.
A tissue microarray (TMA) was constructed with tumor samples collected from 22Rv1 mouse prostate cancer cell. Paraffin sections of the TMA were processed ans stained with antibodies using a Biogenex 16000 automated stainer. Digital images of the slides were obtained through an Aperio AT Turbo scanner 20×. The following antibodies were used for immunohistochemistry staining: Cleaved Caspase 3 (Cell Singaling Technology, 9661), p21 (Cell Signaling Technology, 2947), APC (Abcam, ab15270), Ki67 (Cell Marque, 275R-18), Rb (Abcam, ab181616, p53 (Santa Cruz, sc-126), and SMAD4 (Santa Cruz, sc-7966).

[7] = tested on: Relapsed/Refractory Metastatic Castration Resistant Prostate Cancer (mCRPC); test: Clinical trial in relapsed/refractory mCRPC, KPT-8602 alone and with abiraterone; assay type: in vivo, human
Method: • 1. Histologically confirmed adenocarcinoma of the prostate with archival tumor tissue available for molecular analyses. • 2. Surgically or medically castrated, with testosterone levels of <50 ng/dL (<2.0 nM). • 3. Documented mCRPC progression as assessed by the Investigator with one of the following: • a. Prostate specific antigen (PSA) progression defined by a minimum of 3 rising PSA levels (at approximately Day −30 and approximately Day −45) with an interval of >1 week between each determination. The PSA values at the Screening visit should be >2 μg/L (>2 ng/mL); patients on systemic glucocorticoids for control of symptoms must have documented PSA progression by Prostate Cancer Working Group 3 (PCWG3) while on systemic glucocorticoids prior to commencing C1D1 of treatment. • b. Radiographic progression of soft tissue disease by modified RECIST criteria 1.1 or of bone metastasis with 2 or more documented new bone lesions on a bone scan with or without PSA progression. • 4. Initial response (per modified PCWG3 Guidelines) to second generation anti-hormonal therapy (examples: abiraterone, enzalutamide, TAK 700), but later relapsed. Disease relapse would be defined as progressive disease at the time of entry per inclusion criterion 3. • 5. Zero to 2 previous taxane-based chemotherapy regimens. • 6. At least 2 weeks from completion of any radiotherapy including a single fraction of radiotherapy for the purposes of palliation (confined to one field) is permitted. • 7. Patients should not be transfusion dependent. • 8. Albumin>2.5 g/dL. • 9. Adequate hematopoietic function: ANC≥1000/mm^3, hemoglobin (Hb)≥9.0 g/dL, and platelet count≥100,000/mm^3. • 10. Eastern Cooperative Oncology Group (ECOG) performance status of ≤1. • 11. Life expectancy of ≥4 months. Additional Criteria for Combination Therapy Patients (KPT-8602 and Abiraterone) • 12. Patients currently receiving treatment with abiraterone and appropriate to continue in the opinion of the Investigator (some patients may be progressing). Patients must also have been on and continue on a stable dose of corticosteroids (prednisone or dexamethasone) for 30 days prior to C1D1. B. Patient Characteristics and Demographics
Patients treated with KPT-8602 alone received oral KPT-8602 for 5 days per week (QDx5) at dose levels of 20 and 30 mg. Patients treated with KPT-8602 and abiraterone received oral KPT-8602 for 5 days per week (QDx5) at dose levels of 20 and 30 mg and the dose and schedule of abiraterone and corticosteroids that they were receiving at the time of enrollment. For example, a typical dose of ZYTIGA (abiraterone acetate) is 1000 mg orally once daily with prednisone 5 mg orally twice daily. A full cycle was 28 days long. A representative cycle of KPT-8602 dosing is oral administration 5 out of 7 consecutive days in a week for a 28-day cycle (e.g., Days 1-5, 8-12, 15-19 and 22-26 of each 28-day cycle).
Responses were assessed using RECIST v 1.1 criteria once every 28-day cycle. PR: Partial Response, SD: Stable Disease, PD: Progressive Disease, DCR: Disease Control Rate. 7 Non-evaluable patients: 2AE, 2 patient decision, 2 physician decision, 1 patient non-compliant.
All patients had their disease assessed per modified PCWG3 Guidelines including RECIST v1.1 (see below) by the following tests at pre-determined the time points. • PSA: Disease specific clinical lab assessment • Testosterone: Disease specific clinical lab assessment • Bone scan and CT (or MRI) scan of the abdomen and pelvis (RECIST v.1.1): Patients will receive a bone scan to monitor and assess bone disease progression and CT (or MRI) of the abdomen and pelvis (and chest, if indicated) to monitor and assess soft tissue disease progression per PCWG3 including RECIST v.1.1. […]

[8] = RECIST v1.1, evaluable patients, KPT-8602 20 and 30 mg QDx5

In the case of `NC(=O)/C(=C/n1cnc(-c2cc(C(F)(F)F)cc(C(F)(F)F)c2)n1)c1cncnc1` [KPT-8602], the “mRNA expression of AR” value [1] is reported as “significantly inhibited”, the “mRNA expression of AR-v7” value [2] is reported as “significantly inhibited” and the “protein levels of AR” value [3] is reported as “significantly decreased”. The “protein levels of ARv” value [4] was “significantly decreased”, the survival [5] was “prolongs” and the tumor growth [5] was “significantly inhibits”. For the same molecule, the “median OS (overall survival)” value ([5]; Kaplan-Meier, end of study Day 35, vehicle 20 days) was “undefined”, the “% TGI (tumor growth inhibition) on Day 16” value ([5]; compared to vehicle) was 87% and the “nuclear staining of tumor suppressor protein APC” value [6] was “Increased”. For the same molecule, the “nuclear staining of tumor suppressor protein Rb” value [6] was “Increased”, the “nuclear staining of tumor suppressor protein SMAD4” value [6] was “Increased” and the “nuclear staining of tumor suppressor protein p21” value [6] was “Increased”. The “nuclear staining of tumor suppressor protein p53” value [6] was “Increased”, the “apoptotic molecule (Cleaved Caspase 3)” value ([6]; compared to vehicle controls) was “increased” and the “cell proliferation marker (Ki67)” value ([6]; compared to vehicle controls) was “decreased”. For the same molecule, the “median PFS” value ([7]; Kaplan-Meier analysis, evaluable patients) was 5.9 months, the “DCR (PR + SD) SD ≥ 8 weeks, % of patients” value [7, 8] was 82% and the “DCR (PR + SD) SD ≥ 8 weeks, number of patients” value [7, 8] was 9. The “DCR (PR + SD) SD ≥ 16 weeks, % of patients” value [7, 8] was 55%, the “DCR (PR + SD) SD ≥ 16 weeks, number of patients” value [7, 8] was 6 and the “PD (Progressive Disease), % of patients” value [7, 8] was “(18%)”. For the same molecule, the “PD (Progressive Disease), number of patients” value [7, 8] was 2, the “PR (Partial Response), % of patients” value [7, 8] was “(9%)” and the “PR (Partial Response), number of patients” value [7, 8] was 1. For the same molecule, the “Median ToT (Time on Treatment)” value ([7]; evaluable patients, 20 mg KPT-8602) was 96 days, the “Median ToT (Time on Treatment)” value ([7]; evaluable patients, 30 mg KPT-8602) was 134 days and the “Median ToT (Time on Treatment)” value ([7]; evaluable patients, all doses (20 and 30 mg KPT-8602)) was 96 days.
